The values that follow come from patent US20250026750A1, “SULFOXIMINE-CONTAINING ATR INHIBITOR COMPOUND” (Chia Tai Tianqing Pharmaceutical Group Co., Ltd., priority 2021, published 2025).

In one series the target is ATR kinase (Homo sapiens (Human), UniProt Q13535). As to the kind of experiment: Screening for in vitro inhibitory activity against ATR kinase. Type of series: biochemical. Conditions: 10 μM ATP, 0.1 μM U Light-poly GT substrate. The procedure: A 50 ng/μL ATR stock solution was diluted with a kinase buffer (50 mM HEPES, 10 mM MgCl2, 2 mM DTT, 1 mM EGTA, 0.01% Tween 20), and 6 μL of 1.67×, 0.0835 ng/μL working solution was added to each well (final concentration: 0.05 ng/μL). Different compounds dissolved in DMSO were added to wells using a nanoliter pipettor, such that the final concentrations of the compounds were 1000 nM-0.24 nM and the concentrations in positive wells were 100 nM-0.024 nM (4-fold gradient, 7 concentrations in total). Meanwhile, a blank control well (containing no enzyme) and a negative control well (containing enzyme, with the vehicle DMSO added) were set. After the enzyme had reacted with the compound or vehicle for 30 min, a 5×, 50 μM ATP (final concentration: 10 μM) prepared with the kinase buffer and a 5×, 0.5 μM substrate (final concentration: 0.1 μM, U Light-poly GT) were 1:1 mixed, and the mixture was added to wells at 4 μL/well. After the plate was sealed with a sealing film and the plate was incubated at room temperature for 2 h, 5 μL of 4×, 40 mM EDTA (final concentration: 10 mM) was added to each well. After 5 min of incubation at room temperature, 5 μL of a 4×, 8 nM assay reagent (final concentration: 2 nM, Ep-anti-phospho-tyrosine antibody) was added to each well. The plate was incubated at room temperature for 1 h. Plate reading was performed on a PE instrument (excitation: 320 or 340 nm; emission: 665 nm), and four-parameter fitting and IC50 calculations were performed. The results are shown in Table 1, where A represents IC50<50 nM.
ATR kinase, sequence (Q13535 whole entry): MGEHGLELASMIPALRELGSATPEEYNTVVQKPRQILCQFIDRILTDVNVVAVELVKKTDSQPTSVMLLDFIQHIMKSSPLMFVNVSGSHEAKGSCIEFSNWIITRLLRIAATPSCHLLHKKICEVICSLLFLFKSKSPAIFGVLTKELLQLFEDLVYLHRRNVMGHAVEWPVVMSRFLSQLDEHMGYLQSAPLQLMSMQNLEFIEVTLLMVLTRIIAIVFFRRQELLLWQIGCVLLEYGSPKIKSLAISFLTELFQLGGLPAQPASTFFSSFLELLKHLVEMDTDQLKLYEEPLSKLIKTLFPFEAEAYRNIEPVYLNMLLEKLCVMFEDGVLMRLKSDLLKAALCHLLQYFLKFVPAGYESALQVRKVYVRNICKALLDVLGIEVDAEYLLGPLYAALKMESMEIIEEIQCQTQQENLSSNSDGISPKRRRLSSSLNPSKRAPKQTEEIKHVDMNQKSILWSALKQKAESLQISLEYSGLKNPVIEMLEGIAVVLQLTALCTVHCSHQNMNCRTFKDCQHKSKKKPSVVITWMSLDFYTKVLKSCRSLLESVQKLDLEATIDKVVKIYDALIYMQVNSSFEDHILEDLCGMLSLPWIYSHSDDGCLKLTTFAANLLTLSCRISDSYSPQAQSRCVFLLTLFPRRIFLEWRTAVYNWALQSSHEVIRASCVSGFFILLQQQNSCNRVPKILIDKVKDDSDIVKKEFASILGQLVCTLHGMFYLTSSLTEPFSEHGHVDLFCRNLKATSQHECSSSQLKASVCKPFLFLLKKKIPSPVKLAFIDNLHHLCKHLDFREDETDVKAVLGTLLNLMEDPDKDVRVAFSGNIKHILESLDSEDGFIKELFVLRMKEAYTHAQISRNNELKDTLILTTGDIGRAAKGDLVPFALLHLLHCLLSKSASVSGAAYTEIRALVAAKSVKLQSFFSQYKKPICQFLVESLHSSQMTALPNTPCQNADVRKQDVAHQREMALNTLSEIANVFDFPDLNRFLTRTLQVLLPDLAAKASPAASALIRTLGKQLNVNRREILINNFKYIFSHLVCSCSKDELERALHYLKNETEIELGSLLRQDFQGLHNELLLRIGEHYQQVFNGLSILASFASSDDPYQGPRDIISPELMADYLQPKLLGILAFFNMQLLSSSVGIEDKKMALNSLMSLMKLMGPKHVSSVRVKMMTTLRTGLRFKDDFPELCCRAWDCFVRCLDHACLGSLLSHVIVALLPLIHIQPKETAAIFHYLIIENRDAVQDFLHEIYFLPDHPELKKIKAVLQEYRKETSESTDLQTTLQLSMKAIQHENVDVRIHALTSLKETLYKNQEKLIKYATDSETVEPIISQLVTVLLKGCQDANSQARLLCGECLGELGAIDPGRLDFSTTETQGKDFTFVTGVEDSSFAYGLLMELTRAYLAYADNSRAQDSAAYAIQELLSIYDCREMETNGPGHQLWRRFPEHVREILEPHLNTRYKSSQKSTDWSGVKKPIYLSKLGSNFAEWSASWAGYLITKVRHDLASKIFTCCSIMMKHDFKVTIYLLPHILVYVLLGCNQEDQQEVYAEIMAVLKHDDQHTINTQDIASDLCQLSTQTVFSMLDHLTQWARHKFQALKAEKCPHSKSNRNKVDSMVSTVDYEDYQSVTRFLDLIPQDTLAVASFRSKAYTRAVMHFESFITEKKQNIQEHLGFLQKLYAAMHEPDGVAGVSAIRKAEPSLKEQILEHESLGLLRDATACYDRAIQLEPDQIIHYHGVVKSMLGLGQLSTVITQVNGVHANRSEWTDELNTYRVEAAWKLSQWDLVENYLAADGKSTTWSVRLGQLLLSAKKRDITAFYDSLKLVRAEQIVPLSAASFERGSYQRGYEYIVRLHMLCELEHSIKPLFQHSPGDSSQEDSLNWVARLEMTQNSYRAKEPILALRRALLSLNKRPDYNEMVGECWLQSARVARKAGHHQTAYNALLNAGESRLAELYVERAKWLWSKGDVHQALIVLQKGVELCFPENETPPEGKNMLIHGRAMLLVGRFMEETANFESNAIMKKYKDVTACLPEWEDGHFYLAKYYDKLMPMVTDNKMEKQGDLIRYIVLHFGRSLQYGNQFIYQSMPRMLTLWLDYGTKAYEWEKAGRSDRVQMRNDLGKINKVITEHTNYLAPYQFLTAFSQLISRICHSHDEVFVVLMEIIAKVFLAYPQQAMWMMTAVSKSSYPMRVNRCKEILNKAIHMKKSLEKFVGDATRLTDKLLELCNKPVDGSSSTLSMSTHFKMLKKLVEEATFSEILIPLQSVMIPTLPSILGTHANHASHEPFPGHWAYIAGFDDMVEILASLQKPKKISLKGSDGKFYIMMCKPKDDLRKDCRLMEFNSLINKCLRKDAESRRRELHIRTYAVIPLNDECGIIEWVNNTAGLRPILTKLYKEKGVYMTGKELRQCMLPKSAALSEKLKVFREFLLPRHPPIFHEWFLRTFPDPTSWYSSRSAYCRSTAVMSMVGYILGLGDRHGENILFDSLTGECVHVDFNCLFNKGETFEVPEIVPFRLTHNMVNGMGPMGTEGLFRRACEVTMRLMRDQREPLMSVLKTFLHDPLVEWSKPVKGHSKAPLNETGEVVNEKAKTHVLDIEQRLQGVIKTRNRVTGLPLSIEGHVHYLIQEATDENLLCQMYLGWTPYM
ATR kinase, sequence (Q8WXE1 whole entry partner): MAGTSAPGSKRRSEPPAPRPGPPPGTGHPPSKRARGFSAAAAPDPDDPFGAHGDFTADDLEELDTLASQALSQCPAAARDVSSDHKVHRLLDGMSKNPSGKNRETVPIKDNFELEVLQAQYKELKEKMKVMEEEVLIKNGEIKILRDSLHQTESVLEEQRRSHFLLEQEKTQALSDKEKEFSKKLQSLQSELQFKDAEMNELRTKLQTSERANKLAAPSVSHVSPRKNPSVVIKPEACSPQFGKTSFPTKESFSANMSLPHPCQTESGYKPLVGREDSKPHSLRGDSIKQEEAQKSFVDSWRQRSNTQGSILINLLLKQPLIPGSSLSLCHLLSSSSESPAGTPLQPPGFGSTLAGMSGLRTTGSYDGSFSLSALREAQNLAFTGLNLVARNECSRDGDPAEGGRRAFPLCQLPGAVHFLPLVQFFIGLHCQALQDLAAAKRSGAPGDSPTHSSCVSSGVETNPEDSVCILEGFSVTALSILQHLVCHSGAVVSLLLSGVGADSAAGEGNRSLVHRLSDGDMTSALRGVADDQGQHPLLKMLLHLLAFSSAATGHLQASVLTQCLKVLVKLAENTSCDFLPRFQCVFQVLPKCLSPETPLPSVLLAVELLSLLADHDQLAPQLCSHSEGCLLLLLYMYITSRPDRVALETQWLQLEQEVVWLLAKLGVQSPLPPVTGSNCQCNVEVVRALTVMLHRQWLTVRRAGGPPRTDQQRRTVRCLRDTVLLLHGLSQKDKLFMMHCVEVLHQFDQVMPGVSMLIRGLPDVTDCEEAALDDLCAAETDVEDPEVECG

The next series concerns TMD-8 cells. Description: Assay for inhibitory activity on TMD-8 cell proliferation (CCK-8). Type of series: cell-based. As for the experimental part: TMD-8 cells in a good growth state were collected into a centrifuge tube, adjusted to a cell density of 4×10^4 cells/mL, and inoculated onto a 96-well plate (100 μL/well), and the plate was incubated overnight in a cell incubator. Compounds were added using a nanoliter pipettor such that the final concentrations of the compounds were 10,000 nM-4.57 nM (the addition was performed in duplicate). Meanwhile, a control was set. After another 72 h of incubation in the cell incubator, the assay reagent CCK-8 (manufacturer: Dojindo Laboratories; 10 μL/well) was added. After 4 h of incubation in the cell incubator, absorbance was measured at 450 nm on an Envision microplate reader. A four-parameter analysis was performed, a dose-response curve was fit, and IC50 was calculated. The results are shown in Table 2, where A represents IC50≤200 nM.

Series [1] in a line: In vitro liver microsomal stability. The series is classed as in vitro ADME. Conditions: human liver microsomes, NADPH, 37° C. The procedure:
A 200-μL final incubation system contained 20 μL of liver microsomes (protein concentration: 5 mg/mL), 20 μL of NADPH+MgCl2, 2 μL of a substrate, and 158 μL of PBS buffer. The proportion of the organic solvent was 1%. The assay was performed in duplicate (0.2 mL each) for each species. A 180-μL mixture of substrate and enzyme was prepared in each tube. After the mixture and NADPH were pre-incubated at 37° C. for 5 min, 20 μL of NADPH+MgCl2 was added and mixed. 50-μL samples were taken at 0, 15 and 60 min, and the reactions were stopped using ice-cold acetonitrile containing an internal standard.
50-μL incubated samples were taken, and 300 μL of internal standard-containing acetonitrile was added for precipitation. After 5 min of vortexing and shaking, centrifugation (13,000 rpm, 20° C.) was performed for 10 min. 80 μL of the supernatant was added to a 96-well plate and diluted with 80 μL of ultrapure water, and 1 μL of the dilution was injected for LC-MS/MS analysis.

Series [2] is described as follows: Pharmacokinetic evaluation of compounds in mice. The series is classed as in vivo. To be noted: ICR mice. As for the experimental part:
ICR mice, weighing 18-22 g, were randomized into 4 groups of 9 after 3-5 days of acclimatization, and were administered intragastrically (IG) a test compound at a dose of 10 mg/kg and intravenously (IV) a test compound at a dose of 1 mg/kg.
The test animals (ICR mice) were fasted for 12 h before the administration and given food 4 h after the administration, and they were given ad libitum access to water before, during and after the experiment.
Orbital blood samples of about 0.1 mL were collected at 15 min, 30 min, 1 h, 2 h, 3 h, 4 h, 6 h, 8 h, 10 h and 24 h after the intragastric administration. Orbital blood samples of about 0.1 mL were collected at 5 min, 10 min, 30 min, 1 h, 2 h, 4 h, 6 h, 8 h, 10 h and 24 h after the intravenous administration. The blood sample collection was performed at 3-4 time points for each mouse, 3 mice/per time point. The collected whole blood was placed in EDTA-K2-containing centrifuge tubes and stored at 4° C., and, within 1 h, was centrifuged at 4° C. at 4000 rpm for 10 min to separate plasma. All plasma samples were collected and immediately stored at −20° C. for testing. 30 μL of a plasma sample to be tested and a standard-curve sample were collected, and 300 μL of an acetonitrile solution containing an internal standard (20 ng/mL diazepam) was added and well mixed by 5 min of shaking. The mixture was centrifuged at 13,000 rpm for 10 min, and 80 µL of the supernatant was collected and diluted with 80 μL of ultrapure water. After well mixing, 2 μL of the dilution was collected for liquid chromatography-mass spectrometry analysis, and pharmacokinetic parameters were calculated.

[3] abbreviates: Homo sapiens, TMD8, 72 h incubation.
[4] abbreviates: plasma, IG 10 mg/kg / IV 1 mg/kg study.

Molecules are shown by their SMILES. A value given as a limit tells only on which side of the number the result lay.

`C[C@@H]1COCCN1c1cc(N=[S@@](C)(=O)c2ccc(F)cc2)c2cnn(-c3ccn[nH]3)c2n1` (single isomer, unassigned) [Compound 14-A] displayed a half-inhibitory concentration (IC50) against ATR kinase of under 50 nM.
On to `C[C@@H]1COCCN1c1cc(N=S(C)(C)=O)c2c(CCC(F)(F)F)nn(-c3ccn[nH]3)c2n1` [Compound 24], for which the IC50 in the series on TMD-8 cells (setting [3]) was at most 200 nM.
On the same count and under the same terms, to `C[C@@H]1COCCN1c1cc(N=S(C)(=O)C(C)(C)C)c2cnn(-c3ccn[nH]3)c2n1` (some centres unmarked) [Compound 17] belongs at most 200 nM; to `CC(C)Cc1nn(-c2cc[nH]n2)c2nc(N3CCOC[C@H]3C)cc(N=S(C)(C)=O)c12` [Compound 21], at most 200 nM.
As to `C[C@@H]1COCCN1c1cc(N=S2(=O)CCOCC2)c2cnn(-c3ccn[nH]3)c2n1` [Compound 6], the “Human liver microsome (Residual % at 60 min)” value in series [1] was 94.62%.
On to `C[C@@H]1COCCN1c1cc(N=S(C)(C)=O)c2c(C#CC3CC3)nn(-c3cc[nH]n3)c2n1` [Compound 26], for which, in the series on TMD-8 cells (setting [3]), the IC50 was at most 200 nM.
`CCS(=O)(CC)=Nc1cc(N2CCOC[C@H]2C)nc2c1cnn2-c1ccn[nH]1` [Compound 2] registered an IC50 in the series with TMD-8 cells (setting [3]) of at most 200 nM. Also, in series [1], the “Human liver microsome (Residual % at 60 min)” value worked out at 85.89%.
In the series on TMD-8 cells (setting [3]), `C[C@@H]1COCCN1c1cc(N=S2(=O)CCC2)c2cnn(-c3ccn[nH]3)c2n1` [Compound 3] registered an IC50 of at most 200 nM. The “Human liver microsome (Residual % at 60 min)” value in series [1] was found to be 106.47%.
For `C[C@@H]1COCCN1c1cc(N=[S@@](C)(=O)C2CCCC2)c2cnn(-c3ccn[nH]3)c2n1` (single isomer, unassigned) [Compound 15-A], the IC50 is under 50 nM at ATR kinase and at most 200 nM with TMD-8 cells (setting [3]).
In turn, `C[C@@H]1COCCN1c1cc(N=[S@](C)(=O)C2CCC(F)(F)CC2)c2cnn(-c3ccn[nH]3)c2n1` (single isomer, unassigned) [Compound 16-A] had an IC50 at ATR kinase of under 50 nM.
Consider `Cc1cc(-n2ncc3c(N=S(C)(C)=O)cc(N4CCOC[C@H]4C)nc32)[nH]n1` [Compound 13], for which the IC50 against ATR kinase was under 50 nM. In addition, the “Human liver microsome (Residual % at 60 min)” value in series [1] is listed as 108.36%.
On to `C[C@@H]1COCCN1c1cc(N=[S@@](C)(=O)C2CCCC2)c2cnn(-c3ccn[nH]3)c2n1` [Compound 15-B], for which, in the series with TMD-8 cells (setting [3]), the IC50 was at most 200 nM.
On to `C[C@@H]1COCCN1c1cc(N=S(C)(C)=O)c2cnn(-c3ccn[nH]3)c2n1` [Compound 1], for which the IC50 in the series with TMD-8 cells (setting [3]) is at most 200 nM. For the same compound, the “Human liver microsome (Residual % at 60 min)” value in series [1] amounted to 102.05%.
In the series with TMD-8 cells (setting [3]), `C[C@@H]1COCCN1c1cc(N=S(C)(C)=O)c2c(C(C)(C)C)nn(-c3cc[nH]n3)c2n1` [Compound 25] registered an IC50 of at most 200 nM.
`Cc1cc(-n2ncc3c(N=[S@@](C)(=O)C4CC4)cc(N4CCOC[C@H]4C)nc32)[nH]n1` [Compound 19-A]: the IC50 is under 50 nM against ATR kinase and at most 200 nM with TMD-8 cells (72 h incubation). Moreover, the “IG half-life t1/2” value in series [2] (intragastric 10 mg/kg) is 1.16 h. For the same compound, the “Area under plasma concentration-time curve AUC0-last” value in series [2] (setting [4]) was determined as 5403 ng·h/mL. For the same compound, in series [2] (setting [4]), the “Peak concentration Cmax” value stood at 2948 ng/mL. For the same compound, the “Tissue distribution Vd” value in series [2] (IG 10 mg/kg / IV 1 mg/kg study) was 4.58 L/kg. Further, the “Absolute bioavailability F” value in series [2] (IG 10 mg/kg vs IV 1 mg/kg) stood at 88%.
With `C[C@@H]1COCCN1c1cc(N=S(C)(C)=O)c2c(C(F)(F)F)nn(-c3ccn[nH]3)c2n1` [Compound 23], the IC50 with TMD-8 cells (setting [3]) is at most 200 nM.
Same read-out and setting: the result for `C[C@@H]1COCCN1c1cc(N=S2(=O)CCCCC2)c2cnn(-c3ccn[nH]3)c2n1` [Compound 5] reads at most 200 nM.
`C[C@@H]1COCCN1c1cc(N=[S@](C)(=O)C2CC2)c2cnn(-c3ccn[nH]3)c2n1` [Compound 10-A] displayed an IC50 against ATR kinase of under 50 nM. The “Human liver microsome (Residual % at 60 min)” value in series [1] turned out to be 95.39%. In series [2] (intragastric 10 mg/kg), the “IG half-life t1/2” value amounted to 1.3 h. In series [2] (setting [4]), the “Area under plasma concentration-time curve AUC0-last” value was found to be 13943 ng·h/mL and the “Peak concentration Cmax” value is 4888 ng/mL. Besides, the “Tissue distribution Vd” value in series [2] (IG 10 mg/kg / IV 1 mg/kg study) is on record as 0.68 L/kg. Also, in series [2] (IG 10 mg/kg vs IV 1 mg/kg), the “Absolute bioavailability F” value is 66%.
On to `C[C@@H]1COCCN1c1cc(N=S2(=O)CCCC2)c2cnn(-c3ccn[nH]3)c2n1` [Compound 4], for which the IC50 in the series with TMD-8 cells (setting [3]) is at most 200 nM. Besides, in series [1], the “Human liver microsome (Residual % at 60 min)” value is given as 96.49%.
In turn, `C[C@@H]1COCCN1c1cc(N=S(C)(C)=O)c2c(C3CC3)nn(-c3ccn[nH]3)c2n1` [Compound 22] came in with a half-maximal inhibitory concentration (IC50) in the series on TMD-8 cells (setting [3]) of at most 200 nM.
In turn, `Cc1nn(-c2ccn[nH]2)c2nc(N3CCOC[C@H]3C)cc(N=S(C)(C)=O)c12` [Compound 20] showed an IC50 in the series on TMD-8 cells (setting [3]) of at most 200 nM. In addition, the bioavailability in series [2] (mouse, plasma, oral, IG 10 mg/kg vs IV 1 mg/kg, read-out: Absolute bioavailability F) worked out at 74%. For the same compound, in series [2] (mouse, plasma, po, intragastric 10 mg/kg, read-out: IG half-life t1/2 (converted)), the half-life was 1.93 h. Further, the Vd in series [2] (mouse, plasma, IG 10 mg/kg / IV 1 mg/kg study, read-out: Tissue distribution Vd) is 1.04 L/kg. Moreover, the AUC(0-t) in series [2] (mouse, plasma, IG 10 mg/kg / IV 1 mg/kg study, read-out: Area under plasma concentration-time curve AUC0-last) came to 14600 ng·h/mL. Moreover, in series [2] (mouse, plasma, IG 10 mg/kg / IV 1 mg/kg study, read-out: Peak concentration Cmax), the Cmax came to 6520 ng/mL.
